Legend:
[1] = molecular target: Sodium-dependent noradrenaline transporter (Homo sapiens, UniProt P23975); assay: Inhibition of norepinephrine uptake at human NET expressed in HEK293 cells; assay type: cell-based
[2] = molecular target: Sodium-dependent dopamine transporter (Homo sapiens, UniProt Q01959); assay: Inhibition of dopamine uptake at human DAT expressed in HEK293 cells; assay type: cell-based
[3] = Metabolic stability in human liver microsomes assessed as systemic clearance; assay type: ADME, Microsome
[4] = Metabolic stability in rat liver microsomes assessed as systemic clearance; assay type: ADME, Microsome
[5] = Apparent permeability across human Caco-2 cells; assay type: ADME, cell-based
[6] = molecular target: Sodium-dependent serotonin transporter (Homo sapiens, UniProt P31645)
Chain of Sodium-dependent serotonin transporter (P31645 whole entry): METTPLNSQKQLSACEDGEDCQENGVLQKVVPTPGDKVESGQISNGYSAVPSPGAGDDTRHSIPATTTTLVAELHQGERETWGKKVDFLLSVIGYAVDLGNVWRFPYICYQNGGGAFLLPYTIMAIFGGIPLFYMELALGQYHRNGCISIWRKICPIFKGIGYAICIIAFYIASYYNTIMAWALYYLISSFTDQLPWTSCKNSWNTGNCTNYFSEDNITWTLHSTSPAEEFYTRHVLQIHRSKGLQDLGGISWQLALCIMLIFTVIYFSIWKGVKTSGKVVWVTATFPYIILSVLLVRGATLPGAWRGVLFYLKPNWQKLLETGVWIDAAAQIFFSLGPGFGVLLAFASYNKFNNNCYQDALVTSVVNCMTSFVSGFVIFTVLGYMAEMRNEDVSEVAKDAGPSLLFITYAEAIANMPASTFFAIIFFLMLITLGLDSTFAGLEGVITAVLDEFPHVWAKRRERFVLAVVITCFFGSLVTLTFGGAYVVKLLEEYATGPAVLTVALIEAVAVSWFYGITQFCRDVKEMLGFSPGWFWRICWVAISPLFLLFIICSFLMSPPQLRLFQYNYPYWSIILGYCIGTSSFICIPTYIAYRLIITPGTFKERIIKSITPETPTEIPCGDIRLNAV
Description: Inhibition of serotonin uptake at human SERT expressed in HEK293 cells

[7] = Cmax in rat at 10 mg/kg, po; assay type: ADME, organism-based; parameters: dose 10 mg/kg, route oral; details: in vivo
[8] = Tmax in rat at 10 mg/kg, po; assay type: ADME, organism-based; parameters: dose 10 mg/kg, route oral; details: in vivo
[9] = AUC in rat at 10 mg/kg, po; assay type: ADME, organism-based; parameters: dose 10 mg/kg, route oral; details: plasma
[10] = Drug level in rat brain at 10 mg/kg, po at 1 hr; assay type: ADME, organism-based; parameters: dose 10 mg/kg, route oral; details: read-out: Drug uptake
[11] = Drug level in rat brain at 10 mg/kg, po at 4 hrs; assay type: ADME, organism-based; parameters: dose 10 mg/kg, route oral; details: read-out: Drug uptake
[12] = Ratio of drug level in brain to plasma in rat at 10 mg/kg, po after 1 hr
[13] = Ratio of drug level in brain to plasma in rat at 10 mg/kg, po after 4 hrs
[14] = Dissociation constant, pKa of the compound; assay type: physicochemical
[15] = Cmax in rat at 30 mg/kg, po; assay type: ADME, organism-based; parameters: dose 30 mg/kg, route oral; details: in vivo
[16] = Tmax in rat at 30 mg/kg, po; assay type: ADME, organism-based; parameters: dose 30 mg/kg, route oral; details: in vivo
[17] = AUC in rat at 30 mg/kg, po; assay type: ADME, organism-based; parameters: dose 30 mg/kg, route oral; details: plasma
[18] = Drug level in rat brain at 30 mg/kg, po at 1 hr; assay type: ADME, organism-based; parameters: dose 30 mg/kg, route oral; details: read-out: Drug uptake
[19] = Drug level in rat brain at 30 mg/kg, po at 4 hrs; assay type: ADME, organism-based; parameters: dose 30 mg/kg, route oral; details: read-out: Drug uptake
[20] = Ratio of drug level in brain to plasma in rat at 30 mg/kg, po after 1 hr; assay type: ADME, organism-based; parameters: dose 30 mg/kg, route oral
[21] = Ratio of drug level in brain to plasma in rat at 30 mg/kg, po after 4 hrs; assay type: ADME, organism-based; parameters: dose 30 mg/kg, route oral
[22] = Lipophilicity, log P of the compound; assay type: physicochemical; details: octanol/water
[23] = Distribution coefficient, log D of the compound; assay type: physicochemical; details: octanol/water

Chain of Sodium-dependent dopamine transporter (Q01959 whole entry): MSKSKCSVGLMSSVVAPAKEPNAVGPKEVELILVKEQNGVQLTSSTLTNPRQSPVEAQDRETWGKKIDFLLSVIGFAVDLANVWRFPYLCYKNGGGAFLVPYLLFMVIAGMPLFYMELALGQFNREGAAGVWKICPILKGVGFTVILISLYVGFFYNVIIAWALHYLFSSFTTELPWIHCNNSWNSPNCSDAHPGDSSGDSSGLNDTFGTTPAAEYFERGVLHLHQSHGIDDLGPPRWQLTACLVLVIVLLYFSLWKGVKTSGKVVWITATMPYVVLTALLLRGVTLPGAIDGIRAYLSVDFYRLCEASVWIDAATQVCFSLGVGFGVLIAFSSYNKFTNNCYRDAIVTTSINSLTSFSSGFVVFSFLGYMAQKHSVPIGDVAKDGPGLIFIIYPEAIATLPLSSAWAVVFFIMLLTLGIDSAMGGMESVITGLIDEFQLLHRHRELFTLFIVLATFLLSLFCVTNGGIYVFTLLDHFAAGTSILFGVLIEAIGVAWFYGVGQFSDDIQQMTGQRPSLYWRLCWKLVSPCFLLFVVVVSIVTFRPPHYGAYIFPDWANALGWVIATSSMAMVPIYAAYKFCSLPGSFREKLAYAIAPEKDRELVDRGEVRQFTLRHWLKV
Chain of Sodium-dependent noradrenaline transporter (P23975 whole entry): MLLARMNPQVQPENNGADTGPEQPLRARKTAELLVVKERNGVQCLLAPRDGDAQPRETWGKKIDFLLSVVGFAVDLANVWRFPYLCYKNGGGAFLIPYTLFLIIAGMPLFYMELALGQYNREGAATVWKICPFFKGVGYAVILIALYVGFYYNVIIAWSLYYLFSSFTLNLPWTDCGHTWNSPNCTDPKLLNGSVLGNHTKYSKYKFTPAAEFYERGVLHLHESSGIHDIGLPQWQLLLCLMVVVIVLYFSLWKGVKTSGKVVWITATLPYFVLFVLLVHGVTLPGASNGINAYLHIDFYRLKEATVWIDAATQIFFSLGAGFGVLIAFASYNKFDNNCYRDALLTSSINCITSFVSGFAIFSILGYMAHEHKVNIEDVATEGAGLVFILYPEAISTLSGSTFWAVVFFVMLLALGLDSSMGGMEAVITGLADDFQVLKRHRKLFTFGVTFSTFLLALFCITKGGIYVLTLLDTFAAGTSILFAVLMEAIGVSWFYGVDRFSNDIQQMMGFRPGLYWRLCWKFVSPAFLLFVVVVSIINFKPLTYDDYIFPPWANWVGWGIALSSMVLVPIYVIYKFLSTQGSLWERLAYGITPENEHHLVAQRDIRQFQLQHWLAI

Row | IC50 [1] [µM] | IC50 [2] [µM] | CLhep predicted [3] [mL/min/kg] | CLhep predicted [4] [mL/min/kg] | Papp [5] [×10⁻⁶ cm/s] | IC50 [6] [µM] | Compound | also measured
1 | 0.037 | 6.9 | 10 | 66 | 4.7 |  | NC[C@@H]1C[C@@]1(C(=O)N1Cc2ccccc2C1)c1ccsc1 | 
2 | 0.02 | > 10 | < 2.6 | 52 | 2.4 | 0.047 | C=CCN(CCOC)C(=O)[C@@]1(c2ccsc2)C[C@H]1CN | 
3 | 0.029 | 6.3 |  |  |  | 0.35 | CCN(CC)C(=O)[C@@]1(c2ccc(Br)s2)C[C@H]1CN | 
4 | 0.0028 | > 10 | < 2.6 | 44 | 9.6 | 0.071 | C#CCN(CC=C)C(=O)[C@@]1(c2ccsc2)C[C@H]1CN | 
5 | 3.7 | > 10 |  |  |  |  | CCN(CC)C(=O)[C@@]1(c2ccsc2)C[C@H]1CNC | 
6 | 0.0027 | 8.3 | 4.7 | 59 | 9.5 | 0.076 | C=CCN(CC=C)C(=O)[C@@]1(c2ccsc2)C[C@H]1CN | 
7 | 0.012 | > 10 | 13 | 67 | 20 | 0.34 | NC[C@@H]1C[C@@]1(C(=O)N1C=COc2ccccc21)c1ccsc1 | 
8 | 0.064 | > 10 | < 2.6 | 18 | 3.2 | 0.047 | C#CCN(CCOC)C(=O)[C@@]1(c2ccsc2)C[C@H]1CN | 
9 | 0.0039 | > 10 | < 2.6 | 54 | 3.4 | 0.04 | C=C(F)CN(CCOC)C(=O)[C@@]1(c2ccsc2)C[C@H]1CN | 
10 | 0.049 | > 10 | 7.1 | 34 | 4.7 | 0.83 | CCN(CC)C(=O)[C@@]1(c2ccsc2)C[C@H]1CN | 
11 | 0.0087 | > 10 | < 2.6 | 42 | 5.3 | 0.026 | C=CCN(C(=O)[C@@]1(c2ccsc2)C[C@H]1CN)C1CC1 | 
12 | 0.1 | > 10 |  |  |  | 0.06 | C=CCN(C)C(=O)[C@@]1(c2ccsc2)C[C@H]1CN | 
13 | 0.0082 | > 10 | < 2.6 | 42 | 16.4 | 0.084 | C#CCN(CC#C)C(=O)[C@@]1(c2ccsc2)C[C@H]1CN | 
14 | 0.065 | 2.4 |  |  |  | 0.62 | CCN(CC)C(=O)[C@@]1(c2cc3ccccc3s2)C[C@H]1CN | 
15 | 0.56 | > 10 |  |  |  | 2.2 | CCN(CC)C(=O)[C@@]1(c2cc(Cl)c(Cl)s2)C[C@H]1CN | 
16 | 0.076 | > 10 |  |  |  | 0.52 | CCN(CC)C(=O)[C@@]1(c2cccs2)C[C@H]1CN | 
17 | 0.2 | > 10 |  |  |  | 1.8 | NC[C@@H]1C[C@@]1(C(=O)N1C=CCCC1)c1ccsc1 | 
18 | 0.02 | > 10 |  |  |  | 0.42 | NC[C@@H]1C[C@@]1(C(=O)N1CCCc2ccccc21)c1ccsc1 | 
19 | 0.0083 | > 10 |  |  |  | 0.32 | NC[C@@H]1C[C@@]1(C(=O)N1CCc2ccccc2C1)c1ccsc1 | 
20 | 0.044 | > 10 | < 2.6 | 32 | 13.8 | 0.06 | C=C(F)CN(C)C(=O)[C@@]1(c2ccsc2)C[C@H]1CN | 
21 | 0.11 | > 10 |  |  |  | 0.034 | C#CCN(C)C(=O)[C@@]1(c2ccsc2)C[C@H]1CN | 
22 | 0.15 | > 10 |  |  |  | 0.29 | CCN(CC)C(=O)[C@@]1(c2cc3cc(F)ccc3s2)C[C@H]1CN | 
23 | 0.04 | > 10 |  |  |  | 0.52 | CCN(CC)C(=O)[C@@]1(c2ccc(Cl)s2)C[C@H]1CN | 
24 | 0.27 | > 10 |  |  |  | 2 | CCN(CC)C(=O)[C@@]1(c2sc(Cl)c(Cl)c2Cl)C[C@H]1CN | 
25 | 0.17 | > 10 |  |  |  | 3.1 | CCN(CC)C(=O)[C@@]1(c2csc3ccccc23)C[C@H]1CN | 
26 | 1.5 | > 10 |  |  |  | 3.5 | CCN(CC)C(=O)[C@@]1(c2ccccn2)C[C@H]1CN | 
27 | 1.1 | > 10 |  |  |  | 0.59 | COCCN(C)C(=O)[C@@]1(c2ccsc2)C[C@H]1CN | 
28 | 2.2 | > 10 |  |  |  | 9.6 | CCN(CC)C(=O)[C@@]1(c2nc3ccccc3s2)C[C@H]1CN | 
29 | 1.5 | > 10 |  |  |  | 4 | CCN(CC)C(=O)[C@@]1(c2cccnc2)C[C@H]1CN | 
30 | 0.0056 | > 10 | 6.8 | 57 | 6.4 | 0.14 | C=CCN(CC)C(=O)[C@@]1(c2ccsc2)C[C@H]1CN | Cmax [15]: 201 ng/mL; Tmax [16]: 30 min; AUC [17]: 502 ng·h/mL; concentration at 1 h [18]: 39 ng/g; concentration at 4 h [19]: 15 ng/g; Kp at 1 h [20]: 0.3; Kp at 4 h [21]: 0.4; logP [22]: 1.5; pKa [14]: 9.5; logD [23]: 0.1

Row | Compound | IC50 [1] [µM] | IC50 [2] [µM] | CLhep predicted [3] [mL/min/kg] | CLhep predicted [4] [mL/min/kg] | Papp [5] [×10⁻⁶ cm/s] | IC50 [6] [µM] | also measured
31 | CCN(CC)C(=O)[C@@]1(c2ccccc2)C[C@H]1CN [LEVOMILNACIPRAN] |  |  |  | 24 |  |  | Cmax [7]: 232 ng/mL; Tmax [8]: 18 min; AUC [9]: 566 ng·h/mL; concentration at 1 h [10]: 103 ng/g; concentration at 4 h [11]: 55 ng/g; Kp at 1 h [12]: 0.42; Kp at 4 h [13]: 0.86; pKa [14]: 9.6
32 | CCN(CC)C(=O)[C@@]1(c2ccsc2)C[C@H]1CN(C)C | > 10 | > 10 |  |  |  | > 10 | 
33 | CCN(CC)C(=O)[C@]1(c2ccccc2)C[C@@H]1CN |  |  | < 2.6 | 18 |  |  | 

— ChEMBL document CHEMBL1143093 (Bioorg Med Chem Lett, 2008)
